Measured values as given in US9732091B2, “Tryptophanol-derived oxazoloisoindolinones: small-molecule P53 activators” (UNIVERSIDADE DO PORTO, priority 2013, dated 2017).

Biological target: T1, human wt p53 (Homo sapiens, UniProt P04637)
T1 construct: expressed in transfected cells
Assay: yeast-based assay, yeast cells expressing human wt p53 (growth by CFU counts, cell cycle, actin Western blot)
Protocol: FIG. 1 illustrates that SLMP53-1 and SLMP53-2 increase the p53 effects in yeast. Yeast cells expressing human wt p53 and transformed with the empty vector (control yeast) were incubated in selective induction medium in the presence of 0.1-25 μM compound or DMSO only, for 42 hours. (A) Effect of 10 μM SLMP53-1 and SLMP53-2 on the p53-induced yeast growth inhibition. Results are plotted setting as one unit the p53-induced growth inhibition in the presence of DMSO only. Growth was estimated by colony-forming unit (CFU) counts. […] (B) Dose-response curve for SLMP53-1 in yeast cells expressing human p53 and control yeast. Cells were incubated in selective medium with 0.1-25 μM of SLMP53-1 or DMSO only. Results are plotted setting as 100% growth inhibition the number of CFU obtained in the presence of DMSO only. Data are mean±S.E.M. of three independent experiments (*P<0.05; unpaired Student's t-test). (C) Effect of SLMP53-1 and SLMP53-2 on p53-induced S-phase cell cycle arrest in yeast. Cell cycle phases were analyzed by flow cytometry using Sytox Green and quantified using ModFit LT software; quantification of cell cycle phases represent the mean values. (D) Increase of p53-induced actin protein expression levels by SLMP53-1 and SLMP53-2 in yeast expressing p53. Western Blot band intensity was quantified using Pgk1p as loading control (with Bio-Profile Bio-1D++ software).
Using a yeast-based screening approach, the chiral compounds SLMP53-1 and SLMP53-2 were identified as potential activators of wt p53, from a chemical library of tryptophanol-derived oxazoloisoindolinones with general formula (I) shown in FIG. 1, wherein X, R^1, R^2, R^3, R^4, R^5, R^6, R^7, R^8, R^9 and R^10 are as defined herein, as well as their stereoisomers, enantiomers, ra.cemates, tautomers thereof or mixtures thereof; or a pharmaceutically acceptable salt, solvate or prodrug thereof. In the yeast cell model, compounds SLMP53-1 and SLMP53-2 increased the previously reported (Coutinho et al. FEBS Lett. 2009, 583, 3582-3588) p53-induced growth inhibition (FIGS. 1A and B) and S-phase cell cycle arrest (FIG. 1C).

T1 sequence (P04637 whole entry): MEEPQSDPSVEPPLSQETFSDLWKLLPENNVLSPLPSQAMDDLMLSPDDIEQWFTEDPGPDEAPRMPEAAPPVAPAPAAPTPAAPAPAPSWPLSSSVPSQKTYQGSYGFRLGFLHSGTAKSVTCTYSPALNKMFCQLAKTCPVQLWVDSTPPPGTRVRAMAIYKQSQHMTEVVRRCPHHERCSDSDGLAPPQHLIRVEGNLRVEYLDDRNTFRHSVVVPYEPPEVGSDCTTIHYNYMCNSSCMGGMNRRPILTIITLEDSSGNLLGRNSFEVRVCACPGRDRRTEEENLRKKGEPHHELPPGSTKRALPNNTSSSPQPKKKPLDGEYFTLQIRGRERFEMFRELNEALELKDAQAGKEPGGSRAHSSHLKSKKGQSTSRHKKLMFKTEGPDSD

For `C[C@]12OC[C@H](Cc3c[nH]c4ccccc34)N1C(=O)c1ccccc12` [SLMP53-1], the p53-induced growth inhibition (yeast expressing human wt p53, 10 μM, 42 hours, vs DMSO only) was “increased”, the “p53-induced S-phase cell cycle arrest” value (yeast expressing human wt p53, flow cytometry) was “increased” and the actin protein levels (yeast expressing p53, Western blot, vs DMSO only) was “increased the actin protein levels”.
